Laboratory results published in patent publication US9273006B2, “Anabolic compounds for treating and preventing bone loss diseases” (SYDDANSK UNIVERSITET, priority 2012, dated 2016).
“And” between values parts separate entries of the source, which are not always exact repeats. Equal values may be shown once. Read-outs that look alike come from different tables or passages of the source.

B1: TGFβ3: Transforming growth factor β3, added to hMSC together with H-8 (protein, UniProt P10600 301-412, looked up)
Transforming growth factor …: ALDTNYCFRNLEENCCVRPLYIDFRQDLGWKWVHEPKGYYANFCSGPCPYLRSADTTHSTVLGLYNTLNPEASASPCCVPQDLEPLTILYYVGRTPKVEQLSNMVVKSCKCS

Experiments:
hMSC-TERT [1] = assay: In vitro osteoblast differentiation in OIM (ALP activity, alizarin red, qRT-PCR); assay type: cell-based, human; settings: co-treatment with H-8, hMSC
Method: F) H-8 enhances ALP activity of hMSC, in the absence of serum.
Adding H-8 (25 μM) to the osteogenic induction media, during 9-days in vitro hMSC osteogenic differentiation, enhanced expression of osteoblastic markers as shown by qRT-PCR analysis. **P≦0.05, ***P≦0.005 (significant difference as compared to vehicle).
H-8 was added (25 μM) to the OIM at different time points during 12-days period.
In order to confirm the results obtained from the initial screen, the present inventors incubated hMSC-TERT and primary human bone marrow derived MSC (hBMSC) in osteogenic induction medium (OIM) supplemented with H-8 (dose range 1-30 μM) or vehicle. […] To determine the stage of differentiation at which the effect of H-8 was most apparent, the present inventors added H-8 (25 μM) to the OIM at different time points during 12-days period.

TGFβ signaling in hMSC = assay: TGFβ signaling, qRT-PCR and western blot; assay type: cell-based, human; settings: co-treatment with H-8
Description: (C): Western blot analysis of p-Smad and p-Akt reveled that the enahcing effect of H-8 on osteoblast differentiation of hMSC is mediated through activation of non-canonical TGFβ signaling. (D): SB431542, a selective inhibitor of TGWU activity abolished the enhanced phosphorylation of Akt and smad2 after H-8 treatment.
To investigate the mechanisms of the enhancing effects of H-8 on osteoblast differentiation of hMSC, the present inventors performed a DNA microarray analysis of hMSC-TERT under osteogenic culture conditions, in the presence or absence of the H-8 (25 μM). […] In order to identify the pathway that is primarily regulated by H-8 treatment, phosphorylation of canonical and non-canonical TGFβ signaling components was evaluated 5 minutes and 15 minutes after H-8 treatment. The inventors also evaluated the effect of TGFβ3 treatment on H-8 induced phosphorylation of Smad2 and Akt. […] This observation further confirms that the enhancing effect of H-8 on osteoblast differentiation of hMSC is mediated through regulation of TGFβ signaling.

hMSC-TERT [2] = system: hMSC-TERT
[3] = 1 μM inhibitor in osteogenic inducing media, 6 days after induction, hMSC-TERT
[4] = 10 μM inhibitor in osteogenic inducing media, 6 days after induction, hMSC-TERT

Molecule	effect on H-8 enhanced osteoblast differentiation (ALP activity, matrix mineralization) (hMSC-TERT [1])	effect on H-8 induced Smad2 and Akt phosphorylation (TGFβ signaling in hMSC)	Relative ALP activity (hMSC-TERT [2]; [3])	Relative ALP activity (hMSC-TERT [2]; [4])	Relative ALP activity (hMSC-TERT [2])
NC(=O)c1ccc(-c2nc(-c3ccccn3)c(-c3ccc4c(c3)OCO4)[nH]2)cc1 [SB431542]	blunted the enhancing effect of H-8 on osteoblast differentiation of hMSC	abolished the enhancing effect of H-8 on Smad2 and Akt phosphorylation			
Cc1cc2ncc(-c3ccccc3)nc2cc1C [Tyrphostin AG 1295]			1.007	0.3556	
COc1cc2ncnc(Nc3cccc(Cl)c3)c2cc1OC [Tyrphostin AG 1478]			1.097	Toxic	
N#CC(=C(/N)Sc1ccccc1N)/C(C#N)=C(\N)Sc1ccccc1N [U-0126]					0.3485 and 0.281
COC[C@H]1OC(=O)c2coc3c2[C@@]1(C)C1=C(C3=O)[C@@H]2CCC(=O)[C@@]2(C)C[C@H]1OC(C)=O [Wortmannin]			0.8301	0.9122	
C[C@@H](N)[C@H]1CC[C@H](C(=O)Nc2ccncc2)CC1 [Y-27632]			0.9848	0.4092	
Cc1ccc(NC(=O)c2cccc(N(C)C)c2)cc1NC(=O)c1ccc(O)cc1 [ZM 336372]			0.869	0.5373	
C=CC(=O)c1ccc2ccccc2c1 [ZM 449829]			0.9444	0.8946	
Cn1cnc2nc(NCCO)nc(NCc3ccccc3)c21 [iso-Olomoucine]			1.084	0.9318	
BML-265			0.3954	Toxic	
Indirubin-3′-monoxime			0.2589	0.3697	
B1		enhancing effect on H-8 induced Akt and Smad2 phosphorylation			
